Measured values from patent publication US12698507B2, “Methods and compositions for conferring and/or enhancing herbicide tolerance using protoporphyrinogen IX oxidase of various cyanobacteria or variant thereof” (FarmHannong Co., Ltd., priority 2019, dated 2026).
Read-outs that look alike come from different tables or passages of the source.

Legend:
[1] = molecular target: Thermosynechococcus vulcanus NIES-2134 protoporphyrinogen IX oxidase CyPPO18, wild type, SEQ ID NO: 3 (MBP fusion) (Thermosynechococcus vestitus, UniProt Q8DLV2); assay type: biochemical; settings: CyPPO18 WT; 50 μM protoporphyrinogen IX, pH 7.5, room temperature, 30 min
Thermosynechococcus vulcanus NIES-2134 protoporphyrinogen IX oxidase CyPPO18, wild type, SEQ ID NO: 3 (MBP fusion), sequence (Q8DLV2 entry or part of it): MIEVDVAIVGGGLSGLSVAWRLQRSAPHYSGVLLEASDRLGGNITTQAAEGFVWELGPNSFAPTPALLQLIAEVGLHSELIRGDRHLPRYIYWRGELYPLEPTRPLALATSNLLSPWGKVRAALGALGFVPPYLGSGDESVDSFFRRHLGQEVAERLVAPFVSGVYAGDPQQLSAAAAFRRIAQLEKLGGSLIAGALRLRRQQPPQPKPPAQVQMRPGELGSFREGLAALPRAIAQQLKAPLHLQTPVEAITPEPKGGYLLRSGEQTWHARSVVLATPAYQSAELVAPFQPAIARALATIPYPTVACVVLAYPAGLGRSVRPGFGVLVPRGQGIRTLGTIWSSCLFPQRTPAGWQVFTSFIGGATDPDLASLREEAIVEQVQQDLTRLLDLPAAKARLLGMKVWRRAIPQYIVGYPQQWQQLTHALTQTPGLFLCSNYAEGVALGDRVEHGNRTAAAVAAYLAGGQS

[2] = test system: PPO-deficient BT3 E. coli (ΔPPO) transformed with CyPPO18 variant A167L+V305M+F360M (Thermosynechococcus vulcanus NIES-2134, SEQ ID NO: 3); assay type: cell-based; design: key to the marks not given beside the values; settings: LB agar, 0 to 2,000 μM herbicide, 37° C., 16-20 hours
Source text: (§1) To enhance the PPO-inhibiting herbicide resistance of CyPPO19 and CyPPO18, PPO variant genes of the above example 2 were constructed. They were transformed to BT3 (ΔPPO) strain which is deficient of PPO activity and cultured in LB media with PPO-inhibiting herbicide, thereby examining whether growth of transformed BT3 was not inhibited.
(§2) BT3 competent cells were transformed with the pET303-CyPPO19 (wild type), pET303-CyPPO18 (wild type) plasmids, and those with a mutation(s) constructed (refer to example 2) via heat shock method, and were cultured in LB agar media containing ampicillin.
(§3) Single colony transformed with each CyPPO gene was cultured in 3 mL of LB broth (LPSS) containing ampicillin for more than 12 hours, and then was subcultured in LB broth until absorbance (OD600) reached 0.5 to 1. Then, it was diluted with LB broth to OD600=0.5. Again, the diluted solution was serially diluted 4 times by a factor of one tenth. […]
(§4) Then, 10 μL of each diluted solution of E. coli was dropped on the plate and cultured at 37° C. under dark for 16-20 hours. PPO-inhibiting herbicide resistance was evaluated with the extent of E. coli growth containing each gene was observed.
(§5) The extent of herbicide resistance was evaluated by the relative growth of variants to that of wild type, and listed in Tables 9 and 10 and FIGS. 3 to 32. […]

[3] = test system: PPO-deficient BT3 E. coli (ΔPPO) transformed with CyPPO18 variant V165S+A167L+V305M+F360I (Thermosynechococcus vulcanus NIES-2134, SEQ ID NO: 3); assay: Herbicide tolerance test in E. coli, CyPPO18 V165S+A167L+V305M+F360I; assay type: cell-based; design: key to the marks not given beside the values; settings: LB agar, 0 to 2,000 μM herbicide, 37° C., 16-20 hours
Source text: as §1, §2, §3, §4, §5

[4] = molecular target: Thermosynechococcus elongatus PKUAC-SCTE542 protoporphyrinogen IX oxidase CyPPO19 (SEQ ID NO: 1) variant V165C (MBP fusion) (Thermosynechococcus sichuanensis, UniProt A0A7D6JSC1, V165C); assay: PPO enzyme inhibition assay (IC50 for herbicides), CyPPO19 V165C fused to MBP; assay type: biochemical
Thermosynechococcus elongatus PKUAC-SCTE542 protoporphyrinogen IX oxidase CyPPO19 (SEQ ID NO: 1) variant V165C (MBP fusion), sequence (A0A7D6JSC1 entry or part of it V165C): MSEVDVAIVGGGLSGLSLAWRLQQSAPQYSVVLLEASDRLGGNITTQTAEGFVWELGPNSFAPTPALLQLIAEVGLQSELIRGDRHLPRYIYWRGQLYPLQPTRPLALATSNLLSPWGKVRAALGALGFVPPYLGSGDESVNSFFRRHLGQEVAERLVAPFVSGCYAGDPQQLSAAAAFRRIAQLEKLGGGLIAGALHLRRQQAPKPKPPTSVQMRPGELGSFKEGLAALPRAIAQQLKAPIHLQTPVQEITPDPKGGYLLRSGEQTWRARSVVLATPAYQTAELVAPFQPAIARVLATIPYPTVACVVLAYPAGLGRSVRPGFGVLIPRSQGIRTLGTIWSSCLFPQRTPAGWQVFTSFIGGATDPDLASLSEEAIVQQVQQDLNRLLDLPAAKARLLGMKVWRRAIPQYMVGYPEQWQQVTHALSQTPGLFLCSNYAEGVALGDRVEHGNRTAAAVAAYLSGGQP

[5] = molecular target: Thermosynechococcus elongatus PKUAC-SCTE542 protoporphyrinogen IX oxidase CyPPO19 (SEQ ID NO: 1) variant A167I (MBP fusion) (Thermosynechococcus sichuanensis, UniProt A0A7D6JSC1, A167I); assay: biochemical; settings: 50 μM protoporphyrinogen IX, pH 7.5, room temperature, 30 min, 10,000 means equivalent to or higher
Thermosynechococcus elongatus PKUAC-SCTE542 protoporphyrinogen IX oxidase CyPPO19 (SEQ ID NO: 1) variant A167I (MBP fusion), sequence (A0A7D6JSC1 entry or part of it A167I): as the sequence (A0A7D6JSC1 entry or part of it V165C) above, with C165V, A167I counted along it

[6] = molecular target: Thermosynechococcus elongatus PKUAC-SCTE542 protoporphyrinogen IX oxidase CyPPO19 (SEQ ID NO: 1) variant A167L (MBP fusion) (Thermosynechococcus sichuanensis, UniProt A0A7D6JSC1, A167L); assay: biochemical; settings: 50 μM protoporphyrinogen IX, pH 7.5, room temperature, 30 min, 10,000 means equivalent to or higher
Thermosynechococcus elongatus PKUAC-SCTE542 protoporphyrinogen IX oxidase CyPPO19 (SEQ ID NO: 1) variant A167L (MBP fusion), sequence (A0A7D6JSC1 entry or part of it A167L): as the sequence (A0A7D6JSC1 entry or part of it V165C) above, with C165V, A167L counted along it

[7] = molecular target: Thermosynechococcus vulcanus NIES-2134 protoporphyrinogen IX oxidase CyPPO18 (SEQ ID NO: 3) variant V165C (MBP fusion) (Thermosynechococcus vestitus, UniProt Q8DLV2, V165C); assay type: biochemical; settings: 50 μM protoporphyrinogen IX, pH 7.5, room temperature, 30 min
Thermosynechococcus vulcanus NIES-2134 protoporphyrinogen IX oxidase CyPPO18 (SEQ ID NO: 3) variant V165C (MBP fusion), sequence (Q8DLV2 entry or part of it V165C): as the sequence (Q8DLV2 entry or part of it) above, with V165C counted along it

Compound | IC50 [1] [µM] | tolerance level (relative growth of variant to wild type) [2] | tolerance level (relative growth of variant to wild type) [3] | IC50 ([4]; CyPPO19 V165C, 50 μM protoporphyrinogen IX, pH 7.5, room temperature, 30 min) [µM] | IC50 [5] [µM] | IC50 [6] [µM] | IC50 [7] [µM] | IC50 [4] [µM] | IC50 ([5]; read-out: IC50) [µM] | IC50 ([6]; read-out: IC50) [µM]
Cc1nn(-c2cc(CC(Cl)C(=O)O)c(Cl)cc2F)c(=O)n1C(F)F (centres unmarked) [Carfentrazone] | 0.566 | ++ | ++ | 3.09 | ≥ 10 | ≥ 10 | 1.22 | – | – | –
CCOc1cc(Oc2ccc(C(F)(F)F)cc2Cl)ccc1[N+](=O)[O-] [Oxyfluorfen] | 0.103 | ++ | ++ | – | – | – | 0.502 | 3.21 | 1.33 | 5.26
